The text below walks through data of article PMC10303166, “Design, Synthesis, Biological Evaluation, and Molecular Docking Study of 4,6-Dimethyl-5-aryl/alkyl-2-[2-hydroxy-3-(4-substituted-1-piperazinyl)propyl]pyrrolo[3,4-c]pyrrole-1,3(2H,5H)-diones as Anti-Inflammatory Agents with Dual Inhibition of COX and LOX” (Pharmaceuticals, 2023).

One data set concerns the target T1, COX-2 (Homo sapiens, UniProt P35354).
T1 sequence (P35354 18-604): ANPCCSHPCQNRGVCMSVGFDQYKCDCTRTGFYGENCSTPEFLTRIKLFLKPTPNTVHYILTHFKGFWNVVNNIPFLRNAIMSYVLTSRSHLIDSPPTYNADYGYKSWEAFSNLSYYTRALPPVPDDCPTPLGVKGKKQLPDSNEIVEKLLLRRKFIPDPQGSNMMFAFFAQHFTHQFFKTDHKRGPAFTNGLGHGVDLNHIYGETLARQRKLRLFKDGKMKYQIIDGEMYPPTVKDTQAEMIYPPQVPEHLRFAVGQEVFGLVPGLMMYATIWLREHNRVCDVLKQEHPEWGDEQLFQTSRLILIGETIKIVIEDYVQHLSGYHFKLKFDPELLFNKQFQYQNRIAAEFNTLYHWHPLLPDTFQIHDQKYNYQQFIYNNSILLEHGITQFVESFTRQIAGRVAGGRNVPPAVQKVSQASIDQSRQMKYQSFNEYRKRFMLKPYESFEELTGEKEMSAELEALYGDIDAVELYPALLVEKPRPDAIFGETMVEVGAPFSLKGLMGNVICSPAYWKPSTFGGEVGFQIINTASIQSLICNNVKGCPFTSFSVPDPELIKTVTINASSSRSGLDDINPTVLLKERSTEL
Nature of the data set: Colorimetric cyclooxygenase inhibition assay (COX-2). The format is biochemical. The note with it: for IC50: incubation for 2 min with the tested compounds at a concentration of 100 µM, mean (SD); for COX Selectivity Ratio IC50(COX-2)/IC50(COX-1): ratio COX-2 over COX-1. As for the experimental part:
COX peroxidase activity was evaluated by colorimetric evaluation of the occurrence of the oxidized form of N, N, N′, N′-tetramethyl-p-phenylenediamine (TMPD). The reduction of PGG2 (prostaglandin G2) to PGH2 is due to the oxidation of TMPD. […] The tested compounds wells included 110 μL Assay Buffer, 10 μL Hemin, and 40 μL solution of tested compounds, which was dissolved in DMSO in a final concentration of 10 mM. These samples were performed in three replicates for every compound. […] Subsequently, 20 μL substrate, i.e., arachidonic acid, was added. The entire plate was shaken for 5 min. The result is a change in color measured at 590 nm with a Varioskan LUX microplate reader (Thermo Scientific, Waltham, MA, USA).

On the set-up of data set [1]: method as in PMID 10683864. The note with it: "writhing syndrome" test; cited from earlier work. In general terms: An intraperitoneal irritant provokes the stretching counted in writhing tests.
On the set-up of data set [2]: method as in PMID 10683864. To be noted: "hot plate" test; cited from earlier work.
In a further data set the test system is NHDF cells. Put plainly: SRB viability assay on NHDF cells. The format is cell-based. To be noted: Homo sapiens, 48 h incubation with NHDF cells, tested 10-100 µM, mean (SD). As for the experimental part:
The NHDF (CC-2511) was purchased from Lonza, Basel. This line was derived from human dermal fibroblasts grown in 5% CO2 with 95% humidity at 37 °C. Cells were cultured with 10% FBS and 2 mM L-glutamine, 1.25 μg/mL Amphotericin B, and 100 μg/mL Gentamicin. Twice a week, the morphology and confluence were evaluated under microscopy. The confluence was above 70%, and the NHDF cells were subcultured with TrypLE solution.
The new 2-[2-hydroxy-3-(4-substituted-1-piperazinyl)propyl] derivatives were dissolved in DMSO to a concentration of 10 mM and stored at −20 °C. The samples were prepared in four different concentrations of compounds (10 µM, 25 µM, 50 µM, and 100 µM), so the concentration of DMSO for cells was […].
Viability evaluation was performed using the Sulforhodamine B (SRB) dye. The SRB assay was carried out 24 h after seeding. The culture plates were fixed with a cold TCA solution with a final concentration of 10% w/v for 1 h at 4–8 °C. This plate was T0 control. T0 is cell before treatment tested compounds. The supernatant was removed from the culture. The compounds were added and incubated for 48 h at 5% CO2, 95% humidity, and 37 °C. The culture was fixed with a cold TCA solution. The same condition was performed on the T0 plate. […] The absorbance was measured at 540 nm with a Varioskan LUX microplate reader (Thermo Scientific, Waltham, MA, USA).

The target of another data set is 15-LOX (Glycine max, UniProt P08170). Nature of the data set: Lipoxygenase inhibitor screening assay. The format is biochemical. To be noted: 15-LO, arachidonic acid substrate; mean (SD). The method, then:
The assay detects and measures the hydroperoxides produced in the lipoxygenation reduction using a purified lipoxygenase (LO). Blank wells were prepared that contained 100 μL Assay buffer. The positive control included 10 μL 1x assay buffer and 90 μL 15-LO, but 100% of the Initial activity samples contained 90 μL 15-LO and 10 μL methanol. Samples with test compounds were prepared in triplicate, containing 90 µL of 15-LO and 10 µL of test compound at the assayed concentration of 10 mM. All samples prepared in this way were incubated for 5 min at room temperature. Subsequently, the substrate, i.e., arachidonic acid, was added. The entire test plate was shaken for 10 min. 100 µL of chromogen was added to the samples. The entire plate was shaken for 5 min. The absorbance was read at 490 nm in a VariuScan microplate reader.

Where two headings read alike, the source gives them in different places.

Sequence of 15-LOX (P08170 whole entry): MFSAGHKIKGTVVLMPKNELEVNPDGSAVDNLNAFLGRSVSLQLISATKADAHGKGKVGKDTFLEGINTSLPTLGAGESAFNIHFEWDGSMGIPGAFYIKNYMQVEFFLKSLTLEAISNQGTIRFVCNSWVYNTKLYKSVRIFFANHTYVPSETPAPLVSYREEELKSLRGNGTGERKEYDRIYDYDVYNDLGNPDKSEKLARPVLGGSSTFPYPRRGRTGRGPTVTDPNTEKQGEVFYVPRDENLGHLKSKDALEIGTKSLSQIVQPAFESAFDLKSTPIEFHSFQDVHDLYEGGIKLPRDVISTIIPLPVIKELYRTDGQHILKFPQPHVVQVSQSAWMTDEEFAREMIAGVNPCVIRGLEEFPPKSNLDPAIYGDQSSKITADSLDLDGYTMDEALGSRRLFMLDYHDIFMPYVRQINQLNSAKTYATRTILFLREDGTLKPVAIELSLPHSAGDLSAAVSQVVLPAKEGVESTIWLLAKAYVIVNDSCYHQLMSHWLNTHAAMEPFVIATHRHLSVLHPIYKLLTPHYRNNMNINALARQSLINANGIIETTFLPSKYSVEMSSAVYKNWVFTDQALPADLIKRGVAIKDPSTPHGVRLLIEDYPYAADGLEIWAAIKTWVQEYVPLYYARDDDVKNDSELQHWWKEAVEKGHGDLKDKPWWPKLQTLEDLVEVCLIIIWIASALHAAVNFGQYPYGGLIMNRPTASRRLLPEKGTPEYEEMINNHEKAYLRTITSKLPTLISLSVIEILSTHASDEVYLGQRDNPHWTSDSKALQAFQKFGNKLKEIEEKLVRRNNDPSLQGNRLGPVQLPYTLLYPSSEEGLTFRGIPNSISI

For the compound `Cc1c2c(c(C)n1-c1cccc(Cl)c1)C(=O)N(CC(O)CN1CCN(c3ncccn3)CC1)C2=O` (stereo not drawn) [3j, 4,6-dimethyl-5-(3-chlorophenyl)-2-[2-hydroxy-3-(4-pyrimidynylpiperazin-1-yl)propyl]pyrrolo[3,4-c]pyrrole-1,3(2H,5H)-dione], the melting point (commonly the temperature of the solid-liquid transition) lay in the range of 179 to 181 °C. On COX-2, the IC50 (as a rule, the point on the concentration scale where inhibition reaches its midpoint) came out at 60.28 ± 0.02 µM and the “COX Selectivity Ratio IC50(COX-2)/IC50(COX-1)” value is reported as 0.79.

For `CCCCn1c(C)c2c(c1C)C(=O)N(CC(O)CN1CCN(c3ccccc3)CC1)C2=O` (stereo not drawn) [Compound I], the “Analgesic activity: acted up to the dose (fraction of LD50)” value in data set [1] is 1/80; in data set [2], 1/20.

Take `Cc1c2c(c(C)n1-c1ccccc1)C(=O)N(CC(O)CN1CCN(c3ncccn3)CC1)C2=O` (stereo not drawn) [3i, 4,6-dimethyl-5-phenyl-2-[2-hydroxy-3-(4-pyrimidynylpiperazin-1-yl)propyl]pyrrolo[3,4-c]pyrrole-1,3(2H,5H)-dione]: at COX-2, the IC50 came to 57.93 ± 0.02 µM and the “COX Selectivity Ratio IC50(COX-2)/IC50(COX-1)” value was found to be 0.71.

Turning to `CCCCn1c(C)c2c(c1C)C(=O)N(CC(O)CN1CCN(c3ncccn3)CC1)C2=O` (stereo not drawn) [3k, 4,6-dimethyl-5-butyl-2-[2-hydroxy-3-(4-pyrimidynyl-1-piperazinyl)propyl]pyrrolo[3,4-c]pyrrole-1,3(2H,5H)-dione], the melting point was in the range of 182 to 184 °C. At COX-2, half-maximal inhibition (IC50) was put at 60.83 ± 0.01 µM and the “COX Selectivity Ratio IC50(COX-2)/IC50(COX-1)” value is on record as 0.73.

Regarding `CCCCn1c(C)c2c(c1C)C(=O)N(CC(O)CN1CCN(S(C)(=O)=O)CC1)C2=O` (stereo not drawn) [3o, 4,6-dimethyl-5-butyl-2-[2-hydroxy-3-(N-methylsulphonylpiperazin-1-yl)-propyl]pyrrolo[3,4-c]pyrrole-1,3(2H,5H)-dione], the melting point was in the range of 139 to 141 °C. At COX-2, the IC50 was 59.42 ± 0.06 µM and the “COX Selectivity Ratio IC50(COX-2)/IC50(COX-1)” value was 0.85. Moreover, the IC50 in the data set on NHDF cells was 49.47 ± 0.05 µM.

`Cc1c2c(c(C)n1-c1ccccc1)C(=O)N(CC(O)CN1CCN(c3ccc(F)cc3)CC1)C2=O` (stereo not drawn) [3c, 4,6-dimethyl-5-phenyl-2-[2-hydroxy-3-[4-(p-fluorophenyl)piperazin-1-yl]propyl]pyrrolo[3,4-c]pyrrole-1,3(2H,5H)-dione]: the melting point fell in the range of 182 to 184 °C. Besides, on COX-2, the IC50 stood at 60.05 ± 0.03 µM and the “COX Selectivity Ratio IC50(COX-2)/IC50(COX-1)” value is 0.76.

As to `Cc1c2c(c(C)n1-c1ccccc1)C(=O)N(CC(O)CN1CCN(S(C)(=O)=O)CC1)C2=O` (stereo not drawn) [3m, 4,6-dimethyl-5-phenyl-2-[2-hydroxy-3-(N-methylsulphonylpiperazin-1-yl)-propyl]pyrrolo[3,4-c]pyrrole-1,3(2H,5H)-dione], the melting point is 136 to 138 °C. Moreover, on COX-2, half-maximal inhibition (IC50) was put at 61 ± 0.04 µM and the “COX Selectivity Ratio IC50(COX-2)/IC50(COX-1)” value is listed as 0.80.

As for `CCCCn1c(C)c2c(c1C)C(=O)N(CC(O)CN1CCN(c3ccc(F)cc3F)CC1)C2=O` (stereo not drawn) [3e, 4,6-dimethyl-5-butyl-2-[2-hydroxy-3-[4-(2,4-difluorophenyl)piperazin-1-yl]propyl]pyrrolo[3,4-c]pyrrole-1,3(2H,5H)-dione], the melting point is 139 to 141 °C. Besides, on COX-2, it took 56.43 ± 0.03 µM to reach half-maximal inhibition (IC50) and the “COX Selectivity Ratio IC50(COX-2)/IC50(COX-1)” value was 0.64. At 15-LOX, the “Lipoxygenase Inhibition Assay IC50 LOX” value is “higher activity against LOX than Zileuton”.

Compound `Cc1c2c(c(C)n1-c1ccccc1)C(=O)N(CC(O)CN1CCN(c3ccc(F)cc3F)CC1)C2=O` (stereo not drawn) [3d, 4,6-dimethyl-5-phenyl-2-[2-hydroxy-3-[4-(2,4-difluorophenyl)-1-piperazinyl]propyl]pyrrolo[3,4-c]pyrrole-1,3(2H,5H)-dione] returned a melting point of 143 to 145 °C. Further, on COX-2, the IC50 was 59.7 ± 0.03 µM and the “COX Selectivity Ratio IC50(COX-2)/IC50(COX-1)” value came out at 0.73. The compound further displayed an IC50 in the data set on NHDF cells of 86.55 ± 0.05 µM.

For `CCCCn1c(C)c2c(c1C)C(=O)N(CC(O)CN1CCN(c3ccccc3C#N)CC1)C2=O` (stereo not drawn) [3f, 4,6-dimethyl-5-butyl-2-[2-hydroxy-3-[4-(o-cyjanophenyl)piperazin-1-yl]propyl]pyrrolo[3,4-c]pyrrole-1,3(2H,5H)-dione], the melting point was 154 to 156 °C. This compound had an IC50 on COX-2 of 60.36 ± 0.06 µM. The “Lipoxygenase Inhibition Assay IC50 LOX” value at 15-LOX was “higher activity against LOX than Zileuton”.

Regarding `Cc1c2c(c(C)n1-c1ccccc1)C(=O)N(CC(O)CN1CCN(c3cccc(C(F)(F)F)c3)CC1)C2=O` (stereo not drawn) [3h, 4,6-dimethyl-5-phenyl-2-[2-hydroxy-3-[4-(m-trifluoromethylphenyl)piperazin-1-yl]propyl]pyrrolo[3,4-c]pyrrole-1,3(2H,5H)-dione], the melting point lay within 135 to 138 °C. Moreover, on COX-2, the concentration for half-maximal inhibition (IC50) is 59.34 ± 0.04 µM and the “COX Selectivity Ratio IC50(COX-2)/IC50(COX-1)” value came to 0.75.

In turn, `CCOc1ccccc1N1CCN(CC(O)CN2C(=O)c3c(c(C)n(-c4cccc(Cl)c4)c3C)C2=O)CC1` (stereo not drawn) [3g, 4,6-dimethyl-5-(3-chlorophenyl)-2-[2-hydroxy-3-[4-(o-ethoxyphenyl)piperazin-1-yl]propyl]pyrrolo[3,4-c]pyrrole-1,3(2H,5H)-dione] yielded a melting point of 129 to 131 °C. On COX-2, it took 60.55 ± 0.09 µM to reach half-maximal inhibition (IC50) and the “COX Selectivity Ratio IC50(COX-2)/IC50(COX-1)” value was determined as 0.70.

For the compound `CCCCn1c(C)c2c(c1C)C(=O)N(CC(O)CN1CCN(c3ccc(C)cc3)CC1)C2=O` (stereo not drawn) [3a, 4,6-dimethyl-5-butyl-2-[2-hydroxy-3-[4-(p-methylphenyl)piperazin-1-yl]propyl]pyrrolo[3,4-c]pyrrole-1,3(2H,5H)-dione], the melting point was in the range of 116 to 118 °C. Further, at COX-2, the IC50 came to 60.16 ± 0.08 µM and the “COX Selectivity Ratio IC50(COX-2)/IC50(COX-1)” value is recorded as 0.73.

`Cc1c2c(c(C)n1-c1cccc(Cl)c1)C(=O)N(CC(O)CN1CCN(S(C)(=O)=O)CC1)C2=O` (stereo not drawn) [3n, 4,6-dimethyl-5-(3-chlorophenyl)-2-[2-hydroxy-3-(N-methylsulphonylpiperazin-1-yl)-propyl]pyrrolo[3,4-c]pyrrole-1,3(2H,5H)-dione] yielded a melting point of 119 to 122 °C. In addition, on COX-2, the IC50 was found to be 60.25 ± 0.07 µM and the “COX Selectivity Ratio IC50(COX-2)/IC50(COX-1)” value worked out at 0.71.

As for `Cc1c2c(c(C)n1-c1ccccc1)C(=O)N(CC(O)CN1CCN(c3ccccc3)CC1)C2=O` (stereo not drawn) [II], the “Analgesic activity: acted up to the dose (fraction of LD50)” value is given as 1/40 in data set [1] and 1/20 in data set [2].

As to `CCCCn1c(C)c2c(c1C)C(=O)N(CC(O)CN1CCN(c3ccc(Br)cc3)CC1)C2=O` (stereo not drawn) [3b, 4,6-dimethyl-5-butyl-2-[2-hydroxy-3-[4-(p-bromophenyl)piperazin-1-yl]propyl]pyrrolo[3,4-c]pyrrole-1,3(2H,5H)-dione], the melting point is 180 to 182 °C. At COX-2, the midpoint of inhibition, the IC50, lay at 59.77 ± 0.05 µM and the “COX Selectivity Ratio IC50(COX-2)/IC50(COX-1)” value was 0.76.
